Experimental data reported in PubChem BioAssay AID1963976 (Molecular Pharmacology Branch, DTP, NCI, 2024).
pIC50: −log10 of the molar value.

System: 435261-313-R-J1-PDC tumor spheroid viability
Test: Anticancer human tumor 435261-313-R-J1-PDC patient-derived colon adenocarcinoma cell line growth inhibition [PI3K]
Settings: spheroids with HUVEC and MSC; for pIC50: curve of first compound; for viability, T/C: stronger effect = lower value
Summary of the method: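 Tumor cells were combined with HUVEC and MSCs into spheroids, then dosed with PI3K-inhibitor combinations over half-log ranges capped near clinical Cmax or 10 microM.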

[1] = second compound 0.00316 µM, first compound 0.0316 µM
[2] = second compound 0.00316 µM, first compound 0.1 µM
[3] = second compound 0.01 µM, first compound 0.0316 µM
[4] = second compound 0.01 µM, first compound 0.1 µM
[5] = second compound 0.0316 µM, first compound 0.0316 µM
[6] = second compound 0.0316 µM, first compound 0.1 µM
[7] = second compound 0.1 µM, first compound 0.0316 µM
[8] = second compound 0.1 µM, first compound 0.1 µM
[9] = second compound 0.316 µM, first compound 0.0316 µM
[10] = second compound 0.316 µM, first compound 0.1 µM
[11] = second compound 1 µM, first compound 0.0316 µM
[12] = second compound 1 µM, first compound 0.1 µM
[13] = second compound 0.00316 µM, first compound 0.316 µM
[14] = second compound 0.00316 µM, first compound 1 µM
[15] = second compound 0.00316 µM, first compound 3.16 µM
[16] = second compound 0.00316 µM, first compound 10 µM
[17] = second compound 0.01 µM, first compound 0.316 µM
[18] = second compound 0.01 µM, first compound 1 µM
[19] = second compound 0.01 µM, first compound 3.16 µM
[20] = second compound 0.01 µM, first compound 10 µM
[21] = second compound 0.0316 µM, first compound 0.316 µM
[22] = second compound 0.0316 µM, first compound 1 µM
[23] = second compound 0.0316 µM, first compound 3.16 µM
[24] = second compound 0.0316 µM, first compound 10 µM
[25] = second compound 0.1 µM, first compound 0.316 µM
[26] = second compound 0.1 µM, first compound 1 µM
[27] = second compound 0.1 µM, first compound 3.16 µM
[28] = second compound 0.1 µM, first compound 10 µM
[29] = second compound 0.316 µM, first compound 0.316 µM
[30] = second compound 0.316 µM, first compound 1 µM
[31] = second compound 0.316 µM, first compound 3.16 µM
[32] = second compound 0.316 µM, first compound 10 µM
[33] = second compound 1 µM, first compound 0.316 µM
[34] = second compound 1 µM, first compound 1 µM
[35] = second compound 1 µM, first compound 3.16 µM
[36] = second compound 1 µM, first compound 10 µM
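Further: spheroids exposed to compounds for 7 days.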

`CC(C)n1nc(-c2ccc3oc(N)nc3c2)c2c(N)ncnc21` + COc1c(OCCCN2CCOCC2)ccc2c3n(c(=NC(=O)c4cnc(N)nc4)nc12)CCN3 was tested, and the pIC50 (second compound 0.00316 µM) was 7.93, the pIC50 (second compound 0.01 µM) was 8.87 and the pIC50 (second compound 0.0316 µM) was greater than 9.50. It also gave a pIC50 (second compound 0.1 µM) greater than 9.50, a pIC50 (second compound 0.316 µM) greater than 9.50 and a pIC50 (second compound 1 µM) greater than 9.50. The viability, T/C (second compound 0.00316 µM, first compound 0.000316 µM) was 66.9%, the viability, T/C (second compound 0.00316 µM, first compound 0.001 µM) was 47.5% and the viability, T/C (second compound 0.00316 µM, first compound 0.00316 µM) was 74.6%. The viability, T/C (second compound 0.00316 µM, first compound 0.01 µM) was 51.4%, the viability, T/C [1] was 27.4% and the viability, T/C [2] was 12.1%. For the same molecule, the viability, T/C (second compound 0.01 µM, first compound 0.000316 µM) was 48.1%, the viability, T/C (second compound 0.01 µM, first compound 0.001 µM) was 56.3% and the viability, T/C (second compound 0.01 µM, first compound 0.00316 µM) was 46.8%. The viability, T/C (second compound 0.01 µM, first compound 0.01 µM) was 32.2%, the viability, T/C [3] was 21.7% and the viability, T/C [4] was 10.8%. It also gave a viability, T/C (second compound 0.0316 µM, first compound 0.000316 µM) of 25.7%, a viability, T/C (second compound 0.0316 µM, first compound 0.001 µM) of 22.9% and a viability, T/C (second compound 0.0316 µM, first compound 0.00316 µM) of 24%. For the same molecule, the viability, T/C (second compound 0.0316 µM, first compound 0.01 µM) was 19.4%, the viability, T/C [5] was 16.4% and the viability, T/C [6] was 9.19%. The viability, T/C (second compound 0.1 µM, first compound 0.000316 µM) was 16.6%, the viability, T/C (second compound 0.1 µM, first compound 0.001 µM) was 14.2% and the viability, T/C (second compound 0.1 µM, first compound 0.00316 µM) was 14%. It also gave a viability, T/C (second compound 0.1 µM, first compound 0.01 µM) of 13.6%, a viability, T/C [7] of 10.3% and a viability, T/C [8] of 5.04%. It also gave a viability, T/C (second compound 0.316 µM, first compound 0.000316 µM) of 8.4%, a viability, T/C (second compound 0.316 µM, first compound 0.001 µM) of 7.74% and a viability, T/C (second compound 0.316 µM, first compound 0.00316 µM) of 6.9%. The viability, T/C (second compound 0.316 µM, first compound 0.01 µM) was 6.3%, the viability, T/C [9] was 4.52% and the viability, T/C [10] was 2.1%. It also gave a viability, T/C (second compound 1 µM, first compound 0.000316 µM) of 4.2%, a viability, T/C (second compound 1 µM, first compound 0.001 µM) of 4.04% and a viability, T/C (second compound 1 µM, first compound 0.00316 µM) of 3.72%. It also gave a viability, T/C (second compound 1 µM, first compound 0.01 µM) of 3.28%, a viability, T/C [11] of 3.57% and a viability, T/C [12] of 2.22%.
With `CC1(C)CCC(CN2CCN(c3ccc(C(=O)NS(=O)(=O)c4ccc(NCC5CCOCC5)c([N+](=O)[O-])c4)c(Oc4cnc5[nH]ccc5c4)c3)CC2)=C(c2ccc(Cl)cc2)C1` + COc1c(OCCCN2CCOCC2)ccc2c3n(c(=NC(=O)c4cnc(N)nc4)nc12)CCN3 the pIC50 (second compound 0.00316 µM) was 5.30, the pIC50 (second compound 0.01 µM) was 5.49 and the pIC50 (second compound 0.0316 µM) was greater than 7.50. The pIC50 (second compound 0.1 µM) was greater than 7.50, the pIC50 (second compound 0.316 µM) was greater than 7.50 and the pIC50 (second compound 1 µM) was greater than 7.50. It also gave a viability, T/C [1] of 77.8%, a viability, T/C [2] of 65% and a viability, T/C [13] of 59.7%. It also gave a viability, T/C [14] of 66.4%, a viability, T/C [15] of 92.9% and a viability, T/C [16] of 15.3%. It also gave a viability, T/C [3] of 45.6%, a viability, T/C [4] of 41.2% and a viability, T/C [17] of 44%. For the same molecule, the viability, T/C [18] was 81%, the viability, T/C [19] was 49.6% and the viability, T/C [20] was 10%. For the same molecule, the viability, T/C [5] was 25.2%, the viability, T/C [6] was 25.9% and the viability, T/C [21] was 28.5%. It also gave a viability, T/C [22] of 22.6%, a viability, T/C [23] of 33.9% and a viability, T/C [24] of 8.36%. It also gave a viability, T/C [7] of 16.8%, a viability, T/C [8] of 15.3% and a viability, T/C [25] of 14.9%. It also gave a viability, T/C [26] of 13.9%, a viability, T/C [27] of 13.5% and a viability, T/C [28] of 5.88%. For the same molecule, the viability, T/C [9] was 8.12%, the viability, T/C [10] was 8.36% and the viability, T/C [29] was 8.35%. The viability, T/C [30] was 7.93%, the viability, T/C [31] was 9.73% and the viability, T/C [32] was 4.39%. For the same molecule, the viability, T/C [11] was 4.19%, the viability, T/C [12] was 4.08% and the viability, T/C [33] was 4.61%. The viability, T/C [34] was 5.2%, the viability, T/C [35] was 6.19% and the viability, T/C [36] was 3.8%.
For `C[C@@H](NC(=O)c1ncnc(N)c1Cl)c1ncc(C(=O)Nc2cc(C(F)(F)F)c(Cl)cn2)s1` + COc1c(OCCCN2CCOCC2)ccc2c3n(c(=NC(=O)c4cnc(N)nc4)nc12)CCN3, the pIC50 (second compound 0.00316 µM) was less than 5.00, the pIC50 (second compound 0.01 µM) was less than 5.00 and the pIC50 (second compound 0.0316 µM) was greater than 7.50. It also gave a pIC50 (second compound 0.1 µM) greater than 7.50, a pIC50 (second compound 0.316 µM) greater than 7.50 and a pIC50 (second compound 1 µM) greater than 7.50. The viability, T/C [1] was 133%, the viability, T/C [2] was 138% and the viability, T/C [13] was 70%. For the same molecule, the viability, T/C [14] was 120%, the viability, T/C [15] was 99.2% and the viability, T/C [16] was 78.6%. The viability, T/C [3] was 66.2%, the viability, T/C [4] was 70.4% and the viability, T/C [17] was 69.8%. For the same molecule, the viability, T/C [18] was 103%, the viability, T/C [19] was 63.3% and the viability, T/C [20] was 53.2%. For the same molecule, the viability, T/C [5] was 32.7%, the viability, T/C [6] was 33.6% and the viability, T/C [21] was 47.5%. The viability, T/C [22] was 30.1%, the viability, T/C [23] was 37.8% and the viability, T/C [24] was 17.5%. For the same molecule, the viability, T/C [7] was 20.4%, the viability, T/C [8] was 21.7% and the viability, T/C [25] was 22%. It also gave a viability, T/C [26] of 19.5%, a viability, T/C [27] of 18.2% and a viability, T/C [28] of 8.2%. For the same molecule, the viability, T/C [9] was 10.8%, the viability, T/C [10] was 13.1% and the viability, T/C [29] was 12.2%. The viability, T/C [30] was 13.3%, the viability, T/C [31] was 10.5% and the viability, T/C [32] was 3.91%. The viability, T/C [11] was 5.11%, the viability, T/C [12] was 6.44% and the viability, T/C [33] was 7.13%. The viability, T/C [34] was 7.09%, the viability, T/C [35] was 5.4% and the viability, T/C [36] was 2.3%.
